Measured values from patent publication US9580409B2, “Modulators of opioid receptors and methods of use thereof” (priority 2011, dated 2017).

How the values were obtained:
mu-opioid receptor [1] = target: T1, mu-opioid receptor (Homo sapiens, UniProt P35372); experiment: biochemical; conditions: read-out: GTP Activity
Target sequence in this assay (P35372 whole entry, species assumed): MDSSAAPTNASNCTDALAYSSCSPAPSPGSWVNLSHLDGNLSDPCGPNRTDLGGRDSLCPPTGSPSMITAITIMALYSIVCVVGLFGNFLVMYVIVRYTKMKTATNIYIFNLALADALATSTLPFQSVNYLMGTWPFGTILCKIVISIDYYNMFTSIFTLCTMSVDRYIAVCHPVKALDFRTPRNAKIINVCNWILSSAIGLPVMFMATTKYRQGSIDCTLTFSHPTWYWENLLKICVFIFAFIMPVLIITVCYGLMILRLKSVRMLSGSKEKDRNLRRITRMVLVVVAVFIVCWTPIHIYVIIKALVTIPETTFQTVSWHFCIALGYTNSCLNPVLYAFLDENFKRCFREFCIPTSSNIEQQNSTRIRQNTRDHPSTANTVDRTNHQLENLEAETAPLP

mu-opioid receptor [2] = target: T1, mu-opioid receptor; experiment: cell-based; conditions: read-out: BArr Activity
Target sequence in this assay (P35372 whole entry, species assumed): as above
Target sequence in this assay (P32121 whole entry partner, species assumed): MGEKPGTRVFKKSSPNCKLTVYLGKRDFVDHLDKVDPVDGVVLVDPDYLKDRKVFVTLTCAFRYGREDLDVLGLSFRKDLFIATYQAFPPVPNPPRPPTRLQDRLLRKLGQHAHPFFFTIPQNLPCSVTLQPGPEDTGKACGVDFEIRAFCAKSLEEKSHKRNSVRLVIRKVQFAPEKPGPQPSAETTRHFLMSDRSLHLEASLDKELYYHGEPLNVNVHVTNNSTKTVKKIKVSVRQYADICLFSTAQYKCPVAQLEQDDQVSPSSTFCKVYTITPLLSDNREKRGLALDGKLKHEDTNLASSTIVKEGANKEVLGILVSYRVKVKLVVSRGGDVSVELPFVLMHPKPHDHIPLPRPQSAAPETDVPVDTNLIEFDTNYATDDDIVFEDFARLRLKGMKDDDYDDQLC

[3] = […], class symbol combines EC50 and efficacy

| SMILES | EC50 (mu-opioid receptor [1]; class symbols) [µM] | EC50 (mu-opioid receptor [2]; class symbols) [µM] | EC50 (mu-opioid receptor [1]; [3]) [µM] | EC50 (mu-opioid receptor [2]; [3]) [µM] |
| --- | --- | --- | --- | --- |
| COc1cc(OC)cc(N2C(N)=C(c3nc4ccccc4[nH]3)C(=O)C2C)c1 (centres unmarked) [compound 1] | 0.1 to 1 | < 10 | – | – |
| COc1cc(OC)cc(N2C(N)=C(c3nc4ccccc4[nH]3)C(=O)C2(C)C)c1 [compound 2] | 0.1 to 1 | < 10 | – | – |
| CCC1C(=O)C(c2nc3ccccc3[nH]2)=C(N)N1c1cc(OC)cc(OC)c1 (centres unmarked) [compound 54] | 0.1 to 1 | < 10 | – | – |
| COc1cc(OC)cc(N2C(N)=C(c3nc4ccccc4[nH]3)C(=O)C2C(C)C)c1 (centres unmarked) [compound 55] | 0.1 to 1 | < 10 | – | – |
| CNC1=C(c2nc3ccccc3[nH]2)C(=O)CN1c1cc(OC)cc(OC)c1 [compound 58] | 0.1 to 1 | < 10 | – | – |
| CNC1=C(c2nc3ccccc3[nH]2)C(=O)C(C)(C)N1c1cc(OC)cc(OC)c1 [compound 79] | < 0.1 | < 10 | – | – |
| COc1cc(OC)cc(N2C(N)=C(c3nc4ccccc4[nH]3)C(=O)[C@H]2C)c1 [compound 82] | < 0.1 | < 10 | – | – |
| CCNC1=C(c2nc3ccccc3[nH]2)C(=O)CN1c1cc(OC)cc(OC)c1 [compound 88] | 0.1 to 1 | < 10 | – | – |
| CCNC1=C(c2nc3ccccc3[nH]2)C(=O)C(C)(C)N1c1cc(OC)cc(OC)c1 [compound 89] | < 0.1 | < 10 | – | – |
| COc1cc(OC)cc(N2C(NC(C)C)=C(c3nc4ccccc4[nH]3)C(=O)C2(C)C)c1 [compound 90] | 0.1 to 1 | < 10 | – | – |
| CC[C@H]1C(=O)C(c2nc3ccccc3[nH]2)=C(N)N1c1cc(OC)cc(OC)c1 [compound 96] | < 0.1 | < 10 | – | – |
| COc1cc(OC)cc(N2C(N)=C(c3nc4ccccc4[nH]3)C(=O)[C@@H]2C(C)C)c1 [compound 98] | < 0.1 | < 10 | – | – |
| CNC1=C(c2nc3ccccc3[nH]2)C(=O)C2(CCC2)N1c1cc(OC)cc(OC)c1 [compound 109] | < 0.1 | < 10 | – | – |
| CNC1=C(c2nc3ccccc3[nH]2)C(=O)C(C)N1c1cc(OC)cc(OC)c1 (centres unmarked) [compound 121] | < 0.1 | < 10 | – | – |
| CNC1=C(c2nc3ccccc3[nH]2)C(=O)[C@@H](C)N1c1cc(OC)cc(OC)c1 [compound 136] | < 0.1 | < 10 | – | – |
| CNC1=C(c2nc3ccccc3[nH]2)C(=O)[C@H](C)N1c1cc(OC)cc(OC)c1 [compound 137] | 0.1 to 1 | < 10 | – | – |
| CCC1C(=O)C(c2nc3ccccc3[nH]2)=C(NC)N1c1cc(OC)cc(OC)c1 (centres unmarked) [compound 153] | < 0.1 | < 10 | – | – |
| CCNC1=C(c2nc3ccccc3[nH]2)C(=O)C(CC)N1c1cc(OC)cc(OC)c1 (centres unmarked) [compound 154] | 0.1 to 1 | < 10 | – | – |
| COc1cc(OC)cc(N2C(N)=C(c3nc4ccccc4[nH]3)C(=O)C23CCCC3)c1 [compound 180] | 0.1 to 1 | < 10 | – | – |
| COc1cc(OC)cc(N2C(N)=C(c3nc4ccccc4[nH]3)C(=O)C23CCOC3)c1 (centres unmarked) [compound 181] | 0.1 to 1 | < 10 | – | – |
| CC[C@H]1C(=O)C(c2nc3ccccc3[nH]2)=C(NC)N1c1cc(OC)cc(OC)c1 [compound 185] | < 0.1 | < 10 | – | – |
| CCNC1=C(c2nc3ccccc3[nH]2)C(=O)[C@H](CC)N1c1cc(OC)cc(OC)c1 [compound 187] | < 0.1 | < 10 | – | – |
| CNC1=C(c2nc3ccccc3[nH]2)C(=O)C2(CCCC2)N1c1cc(OC)cc(OC)c1 [compound 188] | < 0.1 | < 10 | – | – |

| SMILES | EC50 (mu-opioid receptor [1]; class symbols) [µM] | EC50 (mu-opioid receptor [2]; class symbols) [µM] | EC50 (mu-opioid receptor [1]; [3]) [µM] | EC50 (mu-opioid receptor [2]; [3]) [µM] |
| --- | --- | --- | --- | --- |
| COc1cc(OC)cc(N2C(N)=C(c3nc4ccccc4[nH]3)C(=O)C2CCO)c1 (centres unmarked) [compound 203] | – | – | < 0.1 | < 10 |
| CNC1=C(c2nc3ccccc3[nH]2)C(=O)C2(CCOC2)N1c1cc(OC)cc(OC)c1 (centres unmarked) [compound 208] | – | – | < 0.1 | < 10 |
| CNC1=C(c2nc3ccccc3[nH]2)C(=O)[C@]2(CCOC2)N1c1cc(OC)cc(OC)c1 [compound 213] | – | – | < 0.1 | < 10 |
| CNC1=C(c2nc3ccccc3[nH]2)C(=O)[C@@]2(CCOC2)N1c1cc(OC)cc(OC)c1 [compound 214] | – | – | < 0.1 | < 10 |
| CNC1=C(c2nc3ccccc3[nH]2)C(=O)C(CCO)N1c1cc(OC)cc(OC)c1 (centres unmarked) [compound 215] | – | – | < 0.1 | < 10 |
| CNC1=C(c2nc3ccccc3[nH]2)C(=O)C(CCOC)N1c1cc(OC)cc(OC)c1 (centres unmarked) [compound 218] | – | – | < 0.1 | < 10 |
| COc1cc(OC)cc(N2C(N)=C(c3nc4ccccc4[nH]3)C(=O)C2CCNC(C)=O)c1 (centres unmarked) [compound 233] | – | – | < 0.1 | < 10 |
| CCC(=O)NCCC1C(=O)C(c2nc3ccccc3[nH]2)=C(N)N1c1cc(OC)cc(OC)c1 (centres unmarked) [compound 235] | – | – | < 0.1 | < 10 |
| COc1cc(OC)cc(N2C(N)=C(c3nc4ccccc4[nH]3)C(=O)C2CCNC(=O)c2ccccc2)c1 (centres unmarked) [compound 236] | – | – | < 0.1 | < 10 |
| COc1cc(OC)cc(N2C(N)=C(c3nc4ccccc4[nH]3)C(=O)[C@@H]2CCO)c1 [compound 242] | – | – | < 0.1 | < 10 |
| CNC1=C(c2nc3ccccc3[nH]2)C(=O)C(CCNC(C)=O)N1c1cc(OC)cc(OC)c1 (centres unmarked) [compound 254] | – | – | < 0.1 | < 10 |
| CNC1=C(c2nc3ccccc3[nH]2)C(=O)C(CCNC(=O)c2ccccc2)N1c1cc(OC)cc(OC)c1 (centres unmarked) [compound 255] | – | – | < 0.1 | < 10 |
| CNC1=C(c2nc3ccccc3[nH]2)C(=O)C2(CCCOC2)N1c1cc(OC)cc(OC)c1 (centres unmarked) [compound 272] | – | – | < 0.1 | < 10 |
| CNC1=C(c2nc3ccccc3[nH]2)C(=O)C(C)(CNC(C)=O)N1c1cc(OC)cc(OC)c1 (centres unmarked) [compound 281] | – | – | < 0.1 | < 10 |
| CCC(=O)NCC1(C)C(=O)C(c2nc3ccccc3[nH]2)=C(NC)N1c1cc(OC)cc(OC)c1 (centres unmarked) [compound 282] | – | – | < 0.1 | < 10 |
| CCC(=O)NCCC1(C)C(=O)C(c2nc3ccccc3[nH]2)=C(NC)N1c1cc(OC)cc(OC)c1 (centres unmarked) [compound 285] | – | – | < 0.1 | < 10 |
| CNC1=C(c2nc3ccccc3[nH]2)C(=O)C(CNC(C)=O)N1c1cc(OC)cc(OC)c1 (centres unmarked) [compound 287] | – | – | < 0.1 | < 10 |
| CCC(=O)NCC1C(=O)C(c2nc3ccccc3[nH]2)=C(NC)N1c1cc(OC)cc(OC)c1 (centres unmarked) [compound 288] | – | – | < 0.1 | < 10 |
| CNC1=C(c2nc3ccccc3[nH]2)C(=O)[C@](C)(CCNC(C)=O)N1c1cc(OC)cc(OC)c1 [compound 303] | – | – | < 0.1 | < 10 |
| CNC1=C(c2nc3ccccc3[nH]2)C(=O)[C@]2(CCCOC2)N1c1cc(OC)cc(OC)c1 [compound 305] | – | – | < 0.1 | < 10 |
| CNC1=C(c2nc3ccccc3[nH]2)C(=O)[C@](C)(CNC(C)=O)N1c1cc(OC)cc(OC)c1 [compound 307] | – | – | 0.1 to 1 | < 10 |
| CNC1=C(c2nc3ccccc3[nH]2)C(=O)[C@@](C)(CNC(C)=O)N1c1cc(OC)cc(OC)c1 [compound 308] | – | – | < 0.1 | < 10 |
| CNC1=C(c2nc3ccccc3[nH]2)C(=O)C(CC(C)O)N1c1cc(OC)cc(OC)c1 (centres unmarked) [compound 310] | – | – | < 0.1 | < 10 |
